Measured values published in PubChem BioAssay AID2060489 (Molecular Pharmacology Branch, DTP, NCI, 2025).
Each block holds one compound with its values, some of them ahead of it.

Tested on: 922993-354-T-J3-PDC complex spheroids, viability
Assay: Anticancer human tumor 922993-354-T-J3-PDC patient-derived endometrial carcinoma cell line growth inhibition [GQUAD]
Conditions: for IC50: curve of first compound; for viability, T/C: stronger effect = lower value
Summary of the method: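 Viability of tumor cells grown as complex spheroids with endothelial and stromal cells, exposed to drug combinations. Top concentration at or near clinical Cmax (else 10 microM), diluted in half-log increments.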

[1] = second compound 0.0316 µM, first compound 0.0316 µM
[2] = second compound 0.0316 µM, first compound 0.316 µM
[3] = second compound 0.1 µM, first compound 0.0316 µM
[4] = second compound 0.1 µM, first compound 0.316 µM
[5] = second compound 0.316 µM, first compound 0.0316 µM
[6] = second compound 0.316 µM, first compound 0.316 µM
[7] = second compound 1 µM, first compound 0.0316 µM
[8] = second compound 1 µM, first compound 0.316 µM
[9] = second compound 3.16 µM, first compound 0.0316 µM
[10] = second compound 3.16 µM, first compound 0.316 µM
[11] = second compound 10 µM, first compound 0.0316 µM
[12] = second compound 10 µM, first compound 0.316 µM
[13] = second compound 0.0316 µM, first compound 0.1 µM
[14] = second compound 0.0316 µM, first compound 1 µM
[15] = second compound 0.0316 µM, first compound 3.16 µM
[16] = second compound 0.0316 µM, first compound 10 µM
[17] = second compound 0.1 µM, first compound 0.1 µM
[18] = second compound 0.1 µM, first compound 1 µM
[19] = second compound 0.1 µM, first compound 3.16 µM
[20] = second compound 0.1 µM, first compound 10 µM
[21] = second compound 0.316 µM, first compound 0.1 µM
[22] = second compound 0.316 µM, first compound 1 µM
[23] = second compound 0.316 µM, first compound 3.16 µM
[24] = second compound 0.316 µM, first compound 10 µM
[25] = second compound 1 µM, first compound 0.1 µM
[26] = second compound 1 µM, first compound 1 µM
[27] = second compound 1 µM, first compound 3.16 µM
[28] = second compound 1 µM, first compound 10 µM
[29] = second compound 3.16 µM, first compound 0.1 µM
[30] = second compound 3.16 µM, first compound 1 µM
[31] = second compound 3.16 µM, first compound 3.16 µM
[32] = second compound 3.16 µM, first compound 10 µM
[33] = second compound 10 µM, first compound 0.1 µM
[34] = second compound 10 µM, first compound 1 µM
[35] = second compound 10 µM, first compound 3.16 µM
[36] = second compound 10 µM, first compound 10 µM
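Note: spheroids exposed to compounds for seven days.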
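Throughout, for viability, T/C: 100% = DMSO vehicle control viability.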

SMILES: CCc1c2c(nc3ccc(O)cc13)-c1cc3c(c(=O)n1C2)COC(=O)[C@]3(O)CC + CN(C)c1ccc(Nc2c3ccc(NC(=O)CCN4CCCC4)cc3nc3cc(NC(=O)CCN4CCCC4)ccc23)cc1
IC50 (second compound 0.0316 µM): 6.5 nM | IC50 (second compound 0.1 µM): 6.99 nM | IC50 (second compound 0.316 µM): 6.11 nM | IC50 (second compound 1 µM): 6.51 nM | IC50 (second compound 3.16 µM): 6.83 nM | IC50 (second compound 10 µM): 8.98 nM | viability, T/C (second compound 0.0316 µM, first compound 0.000999 µM): 99.2% | viability, T/C (second compound 0.0316 µM, first compound 0.00316 µM): 78.4% | viability, T/C (second compound 0.0316 µM, first compound 0.00999 µM): 34.1% | viability, T/C [1]: 10.4% | viability, T/C (second compound 0.0316 µM, first compound 0.0999 µM): 10.1% | viability, T/C [2]: 20.1% | viability, T/C (second compound 0.1 µM, first compound 0.000999 µM): 96.4% | viability, T/C (second compound 0.1 µM, first compound 0.00316 µM): 94.1% | viability, T/C (second compound 0.1 µM, first compound 0.00999 µM): 30% | viability, T/C [3]: 7.58% | viability, T/C (second compound 0.1 µM, first compound 0.0999 µM): 12% | viability, T/C [4]: 16.8% | viability, T/C (second compound 0.316 µM, first compound 0.000999 µM): 90.6% | viability, T/C (second compound 0.316 µM, first compound 0.00316 µM): 74.3% | viability, T/C (second compound 0.316 µM, first compound 0.00999 µM): 32.5% | viability, T/C [5]: 9.44% | viability, T/C (second compound 0.316 µM, first compound 0.0999 µM): 12.3% | viability, T/C [6]: 13.8% | viability, T/C (second compound 1 µM, first compound 0.000999 µM): 96% | viability, T/C (second compound 1 µM, first compound 0.00316 µM): 77.5% | viability, T/C (second compound 1 µM, first compound 0.00999 µM): 34.4% | viability, T/C [7]: 12.8% | viability, T/C (second compound 1 µM, first compound 0.0999 µM): 11.8% | viability, T/C [8]: 17.7% | viability, T/C (second compound 3.16 µM, first compound 0.000999 µM): 96.7% | viability, T/C (second compound 3.16 µM, first compound 0.00316 µM): 79.8% | viability, T/C (second compound 3.16 µM, first compound 0.00999 µM): 36.3% | viability, T/C [9]: 11.4% | viability, T/C (second compound 3.16 µM, first compound 0.0999 µM): 12.9% | viability, T/C [10]: 20.6% | viability, T/C (second compound 10 µM, first compound 0.000999 µM): 111% | viability, T/C (second compound 10 µM, first compound 0.00316 µM): 89.1% | viability, T/C (second compound 10 µM, first compound 0.00999 µM): 49.3% | viability, T/C [11]: 14.4% | viability, T/C (second compound 10 µM, first compound 0.0999 µM): 17.4% | viability, T/C [12]: 23.3%

IC50 (second compound 0.0316 µM): > 10000 nM | IC50 (second compound 0.1 µM): 255 nM | IC50 (second compound 0.316 µM): < 31.6 nM | IC50 (second compound 1 µM): 480 nM | IC50 (second compound 3.16 µM): < 31.6 nM | IC50 (second compound 10 µM): < 31.6 nM
SMILES: CC(C)n1c(=O)n(C)c2cnc3cc(F)c(-c4ccc(OCCCN5CCCCC5)nc4)cc3c21 + Cc1cnc(CNC(=O)c2c(=O)c3ccc(N4CCCN(C)CC4)nc3n3c2sc2ccccc23)cn1
viability, T/C [1]: 87.1% | viability, T/C [13]: 75% | viability, T/C [2]: 59.3% | viability, T/C [14]: 59.8% | viability, T/C [15]: 52.9% | viability, T/C [16]: 52% | viability, T/C [3]: 53.6% | viability, T/C [17]: 54.5% | viability, T/C [4]: 44.9% | viability, T/C [18]: 45.4% | viability, T/C [19]: 52.9% | viability, T/C [20]: 41.6% | viability, T/C [5]: 52.2% | viability, T/C [21]: 41.4% | viability, T/C [6]: 46.9% | viability, T/C [22]: 40% | viability, T/C [23]: 59.2% | viability, T/C [24]: 46.6% | viability, T/C [7]: 44.1% | viability, T/C [25]: 53.9% | viability, T/C [8]: 54.4% | viability, T/C [26]: 49.5% | viability, T/C [27]: 45.6% | viability, T/C [28]: 38.6% | viability, T/C [9]: 45.4% | viability, T/C [29]: 45.6% | viability, T/C [10]: 49% | viability, T/C [30]: 48.6% | viability, T/C [31]: 58.8% | viability, T/C [32]: 44.6% | viability, T/C [11]: 41.9% | viability, T/C [33]: 43.6% | viability, T/C [12]: 36.6% | viability, T/C [34]: 42.1% | viability, T/C [35]: 37.9% | viability, T/C [36]: 28.3%

SMILES: CC1COCCN1c1cc(-c2ccnn2C)c2ccnc(-c3ccn[nH]3)c2n1 (stereo unspecified) + Cc1[nH]c2ccc(F)cc2c1-c1nc2c3cccnc3c3ncccc3c2[nH]1
IC50 (second compound 0.0316 µM): 188 nM | IC50 (second compound 0.1 µM): 234 nM | IC50 (second compound 0.316 µM): 280 nM | IC50 (second compound 1 µM): 243 nM | IC50 (second compound 3.16 µM): 188 nM | IC50 (second compound 10 µM): 216 nM | viability, T/C [1]: 84% | viability, T/C [13]: 59.3% | viability, T/C [2]: 44.3% | viability, T/C [14]: 23.6% | viability, T/C [15]: 21% | viability, T/C [16]: 16.5% | viability, T/C [3]: 82% | viability, T/C [17]: 66% | viability, T/C [4]: 45.9% | viability, T/C [18]: 25.4% | viability, T/C [19]: 20.9% | viability, T/C [20]: 21.8% | viability, T/C [5]: 108% | viability, T/C [21]: 76.3% | viability, T/C [6]: 50.5% | viability, T/C [22]: 22.7% | viability, T/C [23]: 17.5% | viability, T/C [24]: 16.5% | viability, T/C [7]: 93.2% | viability, T/C [25]: 67% | viability, T/C [8]: 49% | viability, T/C [26]: 21.5% | viability, T/C [27]: 20.1% | viability, T/C [28]: 15.1% | viability, T/C [9]: 98.2% | viability, T/C [29]: 65.6% | viability, T/C [10]: 37.6% | viability, T/C [30]: 25% | viability, T/C [31]: 27.2% | viability, T/C [32]: 21.4% | viability, T/C [11]: 104% | viability, T/C [33]: 70.7% | viability, T/C [12]: 39.4% | viability, T/C [34]: 24.8% | viability, T/C [35]: 26.2% | viability, T/C [36]: 16.6%
